According to publication PMC10427817, “Bioactivities of β-mangostin and its new glycoside derivatives synthesized by enzymatic reactions” (Royal Society Open Science, 2023):
In brackets after ≈: the same amount, converted by molar mass. Like-named read-outs stand apart in the source and are kept apart here.

Key:
[1] = test system: Bacillus subtilis; assay: Anti-microbial activity assay, B. subtilis; format: cell-based; conditions: B. subtilis
Protocol: Bacterial and fungal strains (Bacillus subtilis, Staphylococcus aureus, Lactobacillus fermentum, Escherichia coli, Pseudomonas aeruginosa, Salmonella enterica and Candida albicans) were activated on TSA (Tryptic Soy Agar) and SA (Sabouraud–4% dextrose agar) media, respectively. Before the experiment, the microbial strains were grown in the corresponding liquid media at a concentration of approximately 5 × 10^5 CFU ml^−1 for bacteria and 1 × 10^3 CFU ml^−1 for fungi. The microbial suspension (190 µl) was mixed with 10 µl of the test sample, which was serially diluted twofold, and the microplate was incubated at 37°C for 16–24 h.

[2] = test system: KB epidermal carcinoma; assay: MTT cytotoxicity assay, KB; format: cell-based, human; conditions: Homo sapiens, KB cell line, 72 h, mean ± s.d., three replicates
Protocol: (§1) The cytotoxic activities against the cancer cell lines KB epidermal carcinoma, A549 lung cancer, HepG2 liver cancer and MCF-7 breast cancer, as well as the healthy cell line HEK293 embryonic kidney cells, were determined using the 3-(4,5-dimethylthiazol-2-yl)-2,5-diphenyltetrazolium bromide (MTT) assay. Briefly, cell lines were grown into log phase at 37°C, 5% CO2 in DMEM-Dulbecco's modified Eagle's medium and 10% fetal bovine serum. A concentration of 1 × 10^4–3 × 10^4 cells ml^−1 was prepared depending on the cell line used for the experiment by adding 10 µl of the sample and 190 µl of the cell suspension, followed by incubation under standard conditions. After 72 h of culture, 10 µl of MTT (5 mg ml^−1) was added and incubated for 4 h. Dimethyl sulfoxide (100 µl) was added to dissolve formazan crystals and the density was measured at 540 nm using a BioTek spectrophotometer. The inhibition of cell growth was expressed as IC50 (the half-maximal inhibitory concentration) value.

[3] = molecular target: α-glucosidase; conditions: ref 44; read-out: IC50, α-glucosidase inhibitory activity; cited from earlier work
[4] = test system: MCF-7 cell line; set-up: method as in doi:10.1016/j.jff.2013.10.018; conditions: cited from earlier work
[5] = test system: KB, MCF-7, A549, HepG2, HEK293 cell lines; assay: MTT cytotoxicity assay, range over all tested cell lines; format: cell-based, human; conditions: Homo sapiens; range over all tested cell lines, MTT, 72 h
Protocol: as §1, with “value. Ellipticine was used as reference.” for “value.”

[6] = test system: HEK293 embryonic kidney cells; assay: MTT cytotoxicity assay, HEK293; format: cell-based, human; conditions: Homo sapiens, HEK293 healthy cell line, 72 h, mean ± s.d., three replicates
Protocol: as §1, with “value. Ellipticine was used as reference.” for “value.”

[7] = test system: A549 lung cancer; assay: MTT cytotoxicity assay, A549; format: cell-based, human; conditions: Homo sapiens; A549 cell line, MTT, 72 h, mean ± s.d., three replicates; read-out: IC50
Protocol: as §1, with “value. Ellipticine was used as reference.” for “value.”

[8] = test system: HeLa and SiHa cells; conditions: cited from earlier work

`COc1cc2oc3cc(O)c(OC)c(CC=C(C)C)c3c(=O)c2c(O)c1CC=C(C)C` [β-mangostin] showed an IC50 ([1]; read-out: IC50) of 0.16 ± 0.01 µg/mL (≈ 0.377 µM), an MIC ([1]; read-out: MIC) of 0.5 µg/mL (≈ 1.18 µM) and an IC50 [2] of 21.1 ± 9.9 µM. The IC50 [3] was 14.4 µM, the IC50 ([4]; MCF-7, 24 h treatment) was 26 µM and the IC50 ([4]; MCF-7, 48 h treatment) was 16.5 µM. For the same molecule, the IC50 [5] was 15.4 to 21.1 µM, the IC50 [6] was 15.6 ± 6.5 µM and the IC50 [7] was 15.4 ± 5.1 µM. For the same molecule, the “cytotoxicity or cell cycle suppression” value [8] was “did not cause cytotoxicity or cell cycle suppression”.
